The text below walks through data of patent publication US4695569A, “Bicyclic heterocyclyl containing N-(bicyclic heterocyclyl)-4-piperidinamines” (Janssen Pharmaceutica N.V., priority 1987, dated 1987).

Structures can show the parent of a compound that is named as a salt.

In assay [1] the test system is compound 48/80-induced lethality. In words: Protection of rats from compound 48/80-induced lethality. Format: in vivo, rat (male, inbred Wistar strain). Conditions: Rattus norvegicus, 4 h, read-out: Compound 48/80 lethality test in rats-ED50. Here is the method: Protection of rats from compound 48/80-induced lethality
The protection from compound 48/80-induced lethal circulatory collapse appears to be a simple way of evaluating quantitatively the antihistaminic activity of test compounds. Male rats of an inbred Wistar strain, weighing 240-260 g were used in the experiment. After overnight starvation the rats were transferred to conditioned laboratories (temp.=21±1° C., relative humidity=65±5%).
The rats were treated subcutaneously or orally with a test compound or with the solvent (NaCl solution, 0.9%). […] Survival after 4 hours is therefore considered to be a safe criterion of a protective effect of drug administration.
The ED50 -values of the compounds of formula (I) are listed in the first column of table 1. Said ED50 -values are the values in mg/kg body weight at which the tested compounds protect 50% of the tested animals against compound 48/80-induced lethality.

Assay [2] has as its system serotonin. In words: Antagonistic activity on the effects of serotonin in the gastric lesion test (lesions induced by compound 48/80). Format: in vivo, rat (male, Wistar inbred strain). Conditions: Rattus norvegicus, po, 4 h; read-out: gastric lesion test ED50 (distension of the stomach and lesions in the glandular area completely absent in 50% of rats). The source says: The compounds of formula (I) and the pharmaceutically acceptable acid addition salts thereof are also potent serotonin-antagonists. The potency of the subject compounds as serotonin-antagonists is clearly evidenced by the results obtained in the following tests wherein the antagonistic activity of the subject compounds on the effect of serotonin is examined.
Antagonistic activity on the effects of serotonin in the gastric lesion test
Comound 48/80 (a mixture of oligomers obtained by condensation of 4-methoxy-N-methylbenzeneethanamine and formaldehyde) is a potent releaser of vasoactive amines from endogenous stores such as, for example, histamine and serotonin. […] The shock, followed by dead, can be avoided if the rats are pretreated with a classical H 1 antagonist.
Male rats of a Wistar inbred strain, weighing 220-250 g, were starved overnight, water being available ad libitum. The test compounds were administered orally as a solution or as a suspension in aqueous medium. A control rat and a "blank" rat received the test compound. One hour later 5-[4-(diphenylmethyl)-1-piperazinylmethyl]-1-methyl-1H-benzimidazole-2-methanol was administered subcutaneously to all rats at the dose of 2.5 mg/kg.
Four hours after the intravenous injection of compound 48/80, the rats were decapitated and the stomachs were removed. Subsequently the stomachs ere inspected for distension and contents (blood, fluid, food) and thoroughly rinsed. The macroscopic lesions were scored from 0 to +++, 0 corresponding to complete absence of visible lesions and the highest score corresponding to reddish rough patches covering more than half the glandular area.

For assay [3], the system named is serotonin. The settings on record: known serotonin-antagonists, rats treated with compound 48/80; cited from earlier work.

`Cn1c(=S)n(CCN2CCC(Nc3nc4ccccc4n3Cc3ccco3)CC2)c(=O)c2ccccc21` [Compound 129, 3-[2-[4-[[1-(2-furanylmethyl)-1H-benzimidazol-2-yl]amino]-1-piperidinyl]ethyl]-2,3-dihydro-1-methyl-2-thioxo-4(1H)-quinazolinone]: the values for the ED50 in assay [1] and in assay [2] were 0.08 mg/kg and 0.31 mg/kg, respectively. Turning to `Fc1ccc(Cn2c(NC3CCN(CCn4c(=S)[nH]c5ccccc54)CC3)nc3ccccc32)cc1` [Compound 142, 1-[2-[4-[[1-[(4-fluorophenyl)methyl]-1H-benzimidazole-2-yl]amino]-1-piperidinyl]ethyl]-1,3-dihydro-2H-benzimidazole-2-thione], the values for the ED50 in assay [1] and in assay [2] were 0.16 mg/kg and 0.63 mg/kg, respectively. As for `Fc1ccc(Cn2c(NC3CCN(CCn4c(=S)[nH]c5cncnc54)CC3)nc3ccccc32)cc1` [Compound 143, 9-[2-[4-[[1-[(4-fluorophenyl)methyl]-1H-benzimidazol-2-yl]amino]-1-piperidinyl]ethyl]-7,9-dihydro-8H-purine-8-thione trihydrochloride.dihydrate], the ED50 in assay [1] was 0.31 mg/kg; in assay [2], 0.63 mg/kg. `Cc1nc2nc(NCCN3CCC(Nc4nc5ccccc5n4Cc4ccc(F)cc4)CC3)ccc2[nH]1` [Compound 146, N-[2-[4-[[1-[(4-fluorophenyl)methyl]-1H-benzimidazol-2-yl]amino]-1-piperidinyl]ethyl]-2-methyl-1H-imidazo[4,5-b]pyridin-5-amine]: the ED50 in assay [1] is 0.04 mg/kg; in assay [2] it was 0.08 mg/kg.

With `CCOC(=O)N1CCc2nc(NCCN3CCC(Nc4nc5ccccc5n4Cc4ccc(F)cc4)CC3)sc2C1` [Compound 147, ethyl 2-[[2-[4-[[1-[4-fluorophenyl)methyl]-1H-benzimidazol-2-yl]amino]-1-piperidinyl]ethyl]amino]-4,5-dihydro-thiazolo[4,5-d]pyridine-6(7H)-carboxylate (E)-2-butenedioate (1:2) monohydrate], the ED50 came out at 0.31 mg/kg in assay [1] and 0.63 mg/kg in assay [2]. For `Fc1ccc(Cn2c(NC3CCN(CCc4cn5ccsc5n4)CC3)nc3ccccc32)cc1` [Compound 149, 1-[(4-fluorophenyl)methyl]-N-[1-[2-(imidazo[2,1-b]thiazol-6-yl)ethyl]-4-piperidinyl]-1H-benzimidazol-2-amine], the ED50 in assay [1] and in assay [2] was 0.08 mg/kg throughout. Turning to `Fc1ccc(Cn2c(NC3CCN(CCc4cn5ccccc5n4)CC3)nc3ccccc32)cc1` [Compound 150, 1-[(4-fluorophenyl)methyl]-N-[1-[2-(imidazo[1,2-a]pyridin-2-yl)ethyl]-4-piperidinyl]-1H-benzimidazol-2-amine], the ED50 in assay [1] turned out to be 0.08 mg/kg; in assay [2] it was 0.63 mg/kg. With `Cl.Cl.Cl.Fc1ccc(Cn2c(NC3CCN(Cc4cn5c(n4)CNCC5)CC3)nc3ccccc32)cc1` [Compound 152, 1-[(4-fluorophenyl)methyl]-N-[1-[(5,6,7,8-tetrahydroimidazo[1,2-a]pyrazin-2-yl)methyl]-4-piperidinyl]-1H-benzimidazol-2-amine trihydrochloride], the ED50 in assay [1] worked out at 0.08 mg/kg; in assay [2], 0.63 mg/kg. For the molecule `CN(C)CCCSc1ccccc1NC(=O)/C=C/c1ccccc1` [cinanserin], the “prevention of cyanosis of ears and extremities, lesions in the glandular area of the stomach and abnormal gastric distension” value (shortened to “prevention”) in assay [3] is reported as “prevent completely”. `CN1CCC(=C2c3ccccc3C=Cc3ccccc32)CC1` [cyproheptadine]: the “prevention” value in assay [3] was “prevent completely”.

As to `CN1C[C@H](CNC(=O)OCc2ccccc2)C[C@@H]2c3cccc4c3c(cn4C)C[C@H]21` [metergoline], the “prevention” value in assay [3] is “prevent completely”. Consider `CC[C@@H](CO)NC(=O)[C@@H]1C=C2c3cccc4c3c(cn4C)C[C@H]2N(C)C1` [methysergide], for which the “prevention” value in assay [3] is recorded as “prevent completely”. `CN1CCN2c3ccccc3Cc3ccccc3C2C1` (stereo not drawn) [mianserin]: in assay [3], the “prevention” value was “prevent completely”.

As to `NC(=O)C1(N2CCCCC2)CCN(CCCC(=O)c2ccc(F)cc2)CC1` [pipamperone], the “prevention” value in assay [3] is reported as “prevent completely”. Regarding `CN1CCC(=C2c3ccccc3CCc3sccc32)CC1` [pizotifen], the “prevention” value in assay [3] was “prevent completely”. With `O=C(CCCN1CCC2(CC1)C(=O)NCN2c1ccccc1)c1ccc(F)cc1` [spiperone], the “prevention” value in assay [3] was “prevent completely”.
